Laboratory results: the supplement of paper PMC10307832

Columns and labels:
Assay in all cases: relative viability (nuclei count vs DMSO), 5 days (fraction); higher = more cells survive
Tosedostat + Luminespib = compound: CC(C)C[C@@H](C(=O)N[C@H](C(=O)OC1CCCC1)c1ccccc1)[C@H](O)C(=O)NO [Tosedostat] + CCNC(=O)c1noc(-c2cc(C(C)C)c(O)cc2O)c1-c1ccc(CN2CCOCC2)cc1 [Luminespib] (partner 0.01 µM)
Procedure, shortened: (§1)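 Lung cancer cell lines in 1536-well plates were dosed by pin tool the day after seeding, either with one drug alone or with a fixed anchor-drug dose plus five library-drug doses (not always all listed) in √10 steps. After 5 days, cells were fixed and their nuclei stained in one step (final 0.05% Triton X-100, 1% formaldehyde, 1 ug/ml Hoechst), then counted on 4× images. Relative viability is the nuclei count in treated wells divided by that in vehicle wells. Values are medians of duplicate plates.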

[1] = compound: CC1=NN=C(O1)C2=NN=C(C=C2)N3CCC(CC3)OC4=C(C=CC(=C4)F)Cl + CC(=O)Nc1cccc(-n2c(=O)n(C3CC3)c(=O)c3c(Nc4ccc(I)cc4F)n(C)c(=O)c(C)c32)c1 [Trametinib] (partner 0.02 µM)
Procedure, shortened: as §1

[2] = compound: CC1=NN=C(O1)C2=NN=C(C=C2)N3CCC(CC3)OC4=C(C=CC(=C4)F)Cl + C[C@]1(O)C[C@@H](c2nc(-c3ccc4ccc(-c5ccccc5)nc4c3)c3c(N)nccn32)C1 [Linsitinib] (partner 1 µM)
Procedure, shortened: as §1

[3] = compound: CC1=NN=C(O1)C2=NN=C(C=C2)N3CCC(CC3)OC4=C(C=CC(=C4)F)Cl + Nc1ncn([C@H]2C[C@H](O)[C@@H](CO)O2)c(=O)n1 [Decitabine] (partner 2 µM)
Procedure, shortened: as §1

Cell Line	relative viability (Tosedostat + Luminespib; first compound 0.02 µM)	relative viability (Tosedostat + Luminespib; first compound 0.06325 µM)	relative viability (Tosedostat + Luminespib; first compound 0.2 µM)	relative viability (Tosedostat + Luminespib; first compound 0.6325 µM)	relative viability (Tosedostat + Luminespib; first compound 2 µM)	relative viability ([1]; first compound 0.253 µM)	relative viability ([1]; first compound 0.8 µM)	relative viability ([1]; first compound 2.53 µM)	relative viability ([1]; first compound 8 µM)	relative viability ([2]; first compound 0.253 µM)	relative viability ([2]; first compound 0.8 µM)	relative viability ([2]; first compound 2.53 µM)	relative viability ([2]; first compound 8 µM)	relative viability ([3]; first compound 0.253 µM)	relative viability ([3]; first compound 0.8 µM)	relative viability ([3]; first compound 2.53 µM)	relative viability ([3]; first compound 8 µM)
LXF-289	0.703	0.599	0.687	0.732	0.64	0.603	0.582	0.637	0.58	0.724	0.712	0.688	0.603	0.317	0.323	0.343	0.3
NCI-H23	0.233	0.203	0.22	0.237	0.207	0.34	0.37	0.372	0.381	0.482	–	0.543	0.521	0.268	0.328	0.295	0.282
NCI-H322M	0.835	0.895	0.862	0.826	0.788	0.563	0.487	0.477	0.52	0.853	0.836	0.896	0.786	0.812	0.709	0.682	0.643
NCI-H358	0.229	0.304	0.234	0.293	0.187	0.131	0.137	0.146	0.124	0.714	0.751	0.758	0.795	0.19	0.212	0.197	0.181
NCI-H441	0.347	0.351	0.348	0.332	0.306	0.343	0.327	0.462	0.409	0.571	0.419	0.473	0.396	0.221	0.227	0.259	0.254
NCI-H460	0.0336	0.0335	0.03	0.0417	0.0255	0.0953	0.176	0.175	0.15	0.331	0.3	0.398	0.342	0.164	0.167	0.201	0.166
NCI-H520	0.172	0.252	0.209	0.291	0.225	0.656	0.578	0.648	0.475	0.929	0.793	0.93	0.755	0.603	0.495	0.478	0.362
NCI-H596	1.07	1.26	1.04	0.893	0.938	0.687	0.811	0.714	0.692	–	0.953	1.01	0.933	1.01	0.977	1.08	0.762
NCI-H647	0.11	0.212	0.171	0.334	0.167	0.287	0.5	0.45	0.297	0.759	0.805	0.616	0.582	0.32	0.289	0.275	0.223
NCI-H650	0.952	0.773	0.834	0.714	0.755	0.933	0.874	0.934	0.862	0.981	0.766	0.773	0.786	0.334	0.331	0.336	0.285
NCI-H661	0.958	0.957	0.977	0.909	0.885	0.489	0.472	0.429	0.379	0.566	0.531	0.62	0.469	0.519	0.465	0.407	0.396
NCI-H727	0.305	0.513	–	0.427	0.254	0.467	0.402	0.385	0.341	0.189	0.251	0.327	0.251	0.916	0.873	0.905	0.862
NCI-H838	0.323	0.284	0.308	0.389	0.355	0.406	0.429	0.478	0.428	0.919	0.872	0.93	0.856	0.467	0.463	0.442	0.451
NCI-H1355	0.699	0.782	0.779	0.688	0.648	0.317	0.379	0.374	0.371	–	–	0.806	0.66	0.311	0.333	0.334	0.339
NCI-H1395	0.635	0.774	0.664	0.663	0.559	0.963	0.978	0.89	1	0.931	0.943	1.09	1.06	0.689	0.762	0.757	0.714
NCI-H1437	1.13	1.07	1.2	1.24	1.13	0.391	0.367	0.491	0.375	0.552	0.644	0.689	0.487	0.376	0.383	0.399	0.368
NCI-H1651	0.787	0.715	0.981	0.828	0.582	0.651	0.621	0.609	0.576	0.857	0.873	0.807	0.801	0.486	0.46	0.451	0.391
NCI-H1666	1.02	1.01	0.969	0.994	1.11	0.764	0.761	0.834	0.834	0.589	0.725	0.791	0.656	0.561	0.674	0.69	0.534
NCI-H1734	0.183	0.197	0.194	0.229	0.232	0.642	0.652	0.663	0.597	0.863	0.783	0.814	0.601	0.519	0.482	0.463	0.503

Cell Line	relative viability (Tosedostat + Luminespib; first compound 0.02 µM)	relative viability (Tosedostat + Luminespib; first compound 0.06325 µM)	relative viability (Tosedostat + Luminespib; first compound 0.2 µM)	relative viability (Tosedostat + Luminespib; first compound 0.6325 µM)	relative viability (Tosedostat + Luminespib; first compound 2 µM)	relative viability ([1]; first compound 0.253 µM)	relative viability ([1]; first compound 0.8 µM)	relative viability ([1]; first compound 2.53 µM)	relative viability ([1]; first compound 8 µM)	relative viability ([2]; first compound 0.253 µM)	relative viability ([2]; first compound 0.8 µM)	relative viability ([2]; first compound 2.53 µM)	relative viability ([2]; first compound 8 µM)	relative viability ([3]; first compound 0.253 µM)	relative viability ([3]; first compound 0.8 µM)	relative viability ([3]; first compound 2.53 µM)	relative viability ([3]; first compound 8 µM)
NCI-H1755	0.595	0.512	0.512	0.578	0.415	0.619	0.659	0.645	0.643	0.661	0.754	0.728	0.683	0.524	0.54	0.605	0.503
NCI-H1792	0.427	0.356	0.433	0.802	0.935	0.359	0.398	0.647	0.487	0.324	0.409	0.36	0.401	0.396	0.507	0.558	0.442
NCI-H1793	0.166	0.233	0.322	0.245	0.249	0.434	0.511	0.509	0.403	0.725	0.735	0.952	0.822	0.468	0.482	0.343	0.452
NCI-H1915	0.864	0.79	0.814	0.803	0.608	0.293	0.267	0.277	0.239	0.582	0.51	0.45	0.376	0.255	0.223	0.242	0.217
NCI-H1944	0.855	0.599	0.758	0.724	0.748	0.339	0.324	0.37	0.342	0.626	0.769	0.728	0.717	0.306	0.288	0.321	0.309
NCI-H1975	0.208	0.195	0.382	0.325	0.19	0.171	0.307	0.373	0.385	–	0.941	0.815	0.868	0.258	0.28	0.358	0.278
NCI-H1993	0.87	0.736	1.05	0.827	0.781	0.453	0.523	0.655	0.593	0.679	0.745	0.647	0.693	0.554	0.551	0.484	0.647
NCI-H2009	1.12	1	1.05	0.97	1.04	0.257	0.23	0.233	0.174	0.684	0.636	0.623	0.589	0.322	0.304	0.311	0.268
NCI-H2023	0.912	0.628	0.796	0.571	0.614	0.36	0.419	0.388	0.301	0.478	0.433	0.557	0.393	0.191	0.185	0.186	0.176
NCI-H2085	0.377	0.969	0.491	0.407	0.4	0.326	0.514	0.423	0.363	0.743	0.793	0.792	0.65	0.479	0.477	0.446	0.406
NCI-H2087	0.181	0.158	0.273	0.229	0.21	0.167	0.196	0.244	0.175	0.646	0.659	0.621	0.53	0.238	0.265	0.268	0.271
NCI-H2126	0.848	0.905	0.91	0.878	0.654	0.528	0.532	0.504	0.486	0.67	0.64	0.753	0.505	0.542	0.549	0.488	0.52
NCI-H2347	0.421	0.425	0.594	0.417	0.474	0.234	0.288	0.256	0.246	0.636	0.69	0.766	0.658	0.544	0.593	0.568	0.471
NCI-H2405	0.8	0.809	0.838	0.786	0.79	0.526	0.451	0.432	0.411	0.859	0.784	0.851	0.731	0.452	0.43	0.485	0.443
NCI-H3122	0.0953	0.083	0.106	0.122	0.132	0.173	0.224	0.224	0.232	0.729	0.551	0.749	0.517	0.376	0.31	0.412	0.281
PC-3 [JPC-3]	0.735	0.734	0.731	0.692	0.537	0.634	0.684	0.668	0.748	0.789	0.869	0.869	0.844	0.774	0.747	0.801	0.732
PC-14	0.163	0.197	0.16	0.207	0.127	0.732	0.658	0.582	0.428	0.783	0.732	0.777	0.739	0.19	0.226	0.177	0.23
RERF-LC-KJ	1.35	1.23	1.36	1.08	1.2	0.665	0.593	0.595	0.612	0.523	0.568	0.6	0.632	0.574	0.561	0.52	0.521
